According to patent US10696692B2, “Amido-benzyl sulfone and sulfoxide derivates” (Forma TM, LLC, priority 2012, dated 2020):
Read-outs that look alike come from different tables or passages of the source.

Experiments:
NAMPT = NAMPT (Homo sapiens (Human), UniProt P43490); experiment: Assay 1: Biochemical Inhibition Assay (NAMPT enzymatic reaction, NMN quantified by mass spectrometry); conditions: read-out: Biochemical (IC50);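 further: recombinant His-tagged human NAMPT preincubated with compound 15 min, then reacted 30 min at rt with 1 µM NAM, 100 µM PRPP, 2.5 mM ATP, NMN product read by RapidFire MS, normalized to L-Cystathionine internal standard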
A2780 cells = experiment: Assay 2: In-Vitro Cell Proliferation Assay (A2780 cells, SRB readout, 72 hours); format: cell-based; conditions: A2780 cells, 72 hours, SRB, read-out: Cell Proliferation (IC50);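 further: viable cells counted via sulforhodamine B staining, absorbance at 570 nm, after 72 h exposure at 37 °C, DMSO 0.1% as control, media-only background subtracted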

Chain of NAMPT (P43490 whole entry): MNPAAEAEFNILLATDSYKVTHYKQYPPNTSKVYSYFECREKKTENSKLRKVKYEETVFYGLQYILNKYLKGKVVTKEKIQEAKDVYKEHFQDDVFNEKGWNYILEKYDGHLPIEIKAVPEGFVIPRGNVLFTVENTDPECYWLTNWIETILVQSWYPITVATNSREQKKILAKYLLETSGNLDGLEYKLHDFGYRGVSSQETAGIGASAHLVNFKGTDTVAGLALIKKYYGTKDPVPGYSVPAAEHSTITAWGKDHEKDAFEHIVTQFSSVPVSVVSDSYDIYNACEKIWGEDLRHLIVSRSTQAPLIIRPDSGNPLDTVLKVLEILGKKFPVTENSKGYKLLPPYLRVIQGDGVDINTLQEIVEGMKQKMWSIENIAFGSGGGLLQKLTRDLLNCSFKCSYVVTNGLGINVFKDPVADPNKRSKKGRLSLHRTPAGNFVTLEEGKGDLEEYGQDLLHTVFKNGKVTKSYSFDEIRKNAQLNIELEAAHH

Compound	IC50 (NAMPT)	IC50 (A2780 cells; Homo sapiens, A2780, 72 h)	IC50 (A2780 cells)
O=C(NCc1ccc(S(=O)(=O)N2CC3COCC3C2)cc1)c1cc2ccncc2o1 (stereo not shown) [Example 153, Furo[2,3-c]pyridine-2-carboxylic acid 4-(tetrahydro-furo[3,4-c]pyrrole-5-sulfonyl)-benzylamide]	16.5 nM	48.9 nM	–
O=C(NCc1ccc(S(=O)(=O)C2CCN(C(=O)c3ccccc3)CC2)cc1)c1cnc2[nH]ncc2c1 [Example 344, N-[[4-[(1-benzoyl-4-piperidyl)sulfonyl]phenyl]methyl]-1H-pyrazolo[3,4-b]pyridine-5-carboxamide]	302 nM	451 nM	–
O=C(NCc1ccc(S(=O)(=O)N2CC(F)(F)C2)cc1)c1cnc2[nH]ncc2c1 [Example 281, N-[[4-(3,3-difluoroazetidin-1-yl)sulfonylphenyl]methyl]-1H-pyrazolo[3,4-b]pyridine-5-carboxamide]	95.6 nM	378 nM	–
CN(C)CCN1CCN(S(=O)(=O)c2ccc(CNC(=O)c3ccc4nccn4c3)cc2)CC1 [Example 105, Imidazo[1,2-a]pyridine-6-carboxylic acid 4-[4-(2-dimethylamino-ethyl)-piperazine-1-sulfonyl]-benzylamide]	6.8 nM	9 nM	–
O=C(NCc1ccc(S(=O)(=O)N2CC3(CCOCC3)C2)cc1)c1cnc2[nH]ncc2c1 [Example 269, N-[[4-(7-oxa-2-azaspiro[3.5]nonan-2-ylsulfonyl)phenyl]methyl]-1H-pyrazolo[3,4-b]pyridine-5-carboxamide]	113 nM	45.1 nM	–
O=C(NCc1ccc(S(=O)(=O)N2CCC3(CCCO3)C2)cc1)c1cnc2[nH]ncc2c1 (stereo not shown) [Example 284, N-[[4-(1-oxa-7-azaspiro[4.4]nonan-7-ylsulfonyl)phenyl]methyl]-1H-pyrazolo[3,4-b]pyridine-5-carboxamide]	70.9 nM	42.9 nM	–
O=C(NCc1ccc(S(=O)(=O)C2CCN(CC(F)(F)F)CC2)cc1)c1cc2cnccc2[nH]1 [Example 66, 1H-Pyrrolo[3,2-c]pyridine-2-carboxylic acid 4-[1-(2,2,2-trifluoro-ethyl)-piperidine-4-sulfonyl]-benzylamide]	15.4 nM	–	3.2 nM
O=C(NCc1ccc(S(=O)(=O)N2CCOC3(CCCNC3)C2)cc1)c1ccc2nccn2c1 (stereo not shown) [Example 322, N-[[4-(1-oxa-4,8-diazaspiro[5.5]undecan-4-ylsulfonyl)phenyl]methyl] imidazo[1,2-a]pyridine-6-carboxamide]	43.4 nM	39 nM	–
O=C(NCc1ccc(S(=O)(=O)N2CCC[C@@H](O)C2)cc1)c1cc2cnccc2[nH]1 [Example 50, 1H-Pyrrolo[3,2-c]pyridine-2-carboxylic acid 4-((R)-3-hydroxy-piperidine-1-sulfonyl)-benzylamide]	36.2 nM	23.9 nM	–
O=C(NCc1ccc(S(=O)(=O)N2CCC[C@H](O)C2)cc1)c1cc2ccncc2o1 [Example 150, Furo[2,3-c]pyridine-2-carboxylic acid 4-((S)-3-hydroxy-piperidine-1-sulfonyl)-benzylamide]	31.5 nM	45.8 nM	–
CC(C)(C)OC(=O)N1C[C@H]2CN(S(=O)(=O)c3ccc(CNC(=O)c4ccc5nccn5c4)cc3)C[C@H]21 (racemic) [Example 128, cis-3-(4-{[(Imidazo[1,2-a]pyridine-6-carbonyl)-amino]-methyl}-benzenesulfonyl)-3,6-diaza-bicyclo[3.2.0]heptane-6-carboxylic acid tert-butyl ester]	46.9 nM	11.4 nM	–
CCC(=O)N1CCC(S(=O)(=O)c2ccc(CNC(=O)c3cc4ccncc4o3)cc2)CC1 [Example 312, N-[[4-[(1-propanoyl-4-piperidyl)sulfonyl]phenyl]methyl]furo[2,3-c]pyridine-2-carboxamide]	113 nM	48.9 nM	–
CN1CC2CN(S(=O)(=O)c3ccc(CNC(=O)c4ccc5nccn5c4)cc3)CC(C1)O2 (racemic) [Example 142, cis-Imidazo[1,2-a]pyridine-6-carboxylic acid 4-(7-methyl-9-oxa-3,7-diaza-bicyclo[3.3.1]nonane-3-sulfonyl)-benzylamide]	113 nM	28.6 nM	–
O=C(NCc1ccc(S(=O)(=O)C2CCN(C3CCOCC3)CC2)cc1)c1cnc2nccn2c1 [Example 224, N-[[4-[(1-tetrahydropyran-4-yl-4-piperidyl)sulfonyl]phenyl]methyl]imidazo[1,2-a]pyrimidine-6-carboxamide]	3.98 nM	47.9 nM	–
O=C(NCc1ccc(S(=O)(=O)N2C[C@@H]3C[C@H]2CO3)cc1)c1cnc2[nH]ncc2c1 (racemic) [Example 172, cis-1H-Pyrazolo[3,4-b]pyridine-5-carboxylic acid 4-(2-oxa-5-aza-bicyclo[2.2.1]heptane-5-sulfonyl)-benzylamide]	211 nM	354 nM	–
O=C(NCc1ccc([S+]([O-])C2CCN(C3CCOCC3)CC2)cc1)c1cnc2[nH]ncc2c1 (stereo not shown) [Example 381, N-[[4-[(1-tetrahydropyran-4-yl-4-piperidyl)sulfinyl]phenyl]methyl]-1H-pyrazolo[3,4-b]pyridine-5-carboxamide]	290 nM	201 nM	–
O=C(NCc1ccc(S(=O)(=O)N2CCC(N3CCCC3)CC2)cc1)c1cc2ccncc2o1 [Example 157, Furo[2,3-c]pyridine-2-carboxylic acid 4-(4-pyrrolidin-1-yl-piperidine-1-sulfonyl)-benzylamide]	17.9 nM	14.9 nM	–
CC(=O)N1CCC(S(=O)(=O)c2ccc(CNC(=O)c3cc4cnccc4[nH]3)cc2)CC1 [Example 113, 1H-Pyrrolo[3,2-c]pyridine-2-carboxylic acid 4-(1-acetyl-piperidine-4-sulfonyl)-benzylamide]	64.2 nM	44.6 nM	–
O=C(NCc1ccc(S(=O)(=O)C2CCN(C3COC3)CC2)cc1)c1cc2ccncc2s1 [Example 120, Thieno[2,3-c]pyridine-2-carboxylic acid 4-(1-oxetan-3-yl-piperidine-4-sulfonyl)-benzylamide]	4.3 nM	1.5 nM	–
N#CC1CCN(S(=O)(=O)c2ccc(CNC(=O)c3ccc4nccn4c3)cc2)CC1 [Example 95, Imidazo[1,2-a]pyridine-6-carboxylic acid 4-(4-cyano-piperidine-1-sulfonyl)-benzylamide]	41 nM	33.5 nM	–
O=C(NCc1ccc(S(=O)(=O)N2CCCCC2)cc1)c1ccc2nccn2n1 [Example 16, Imidazo[1,2-b]pyridazine-6-carboxylic acid 4-(piperidine-1-sulfonyl)-benzylamide]	22 nM	163 nM	–
O=C(NCc1ccc(S(=O)(=O)C2CCOCC2)cc1)c1cnc2nccn2c1 [Example 21, Imidazo[1,2-a]pyrimidine-6-carboxylic acid 4-(tetrahydro-pyran-4-sulfonyl)-benzylamide]	8.7 nM	–	185 nM
O=C(NCc1ccc(S(=O)(=O)N2CCN(C3CCOCC3)CC2)cc1)c1cc2ccncc2o1 [Example 170, Furo[2,3-c]pyridine-2-carboxylic acid 4-[4-(tetrahydro-pyran-4-yl)-piperazine-1-sulfonyl]-benzylamide]	30.4 nM	11.9 nM	–
